Measurements published in patent US8748121B2, “GSH adducts and uses thereof” (The Trustees of the University of Pennsylvania, priority 2006, dated 2014).
Where two headings read alike, the source gives them in different places.

Experiments:
[1] = system: glutathione-S-transferase (GST); conditions: GSH 1 mM, ONE 1 mM
Procedure: GSH (1 or 4 mM) was incubated with 4-ONE (1 mM or 100 μM) in 100 mM potassium phosphate buffer (200 μL) containing 1 mM EDTA (pH 6.5). Reactions were also conducted in the presence of equine or rat GST (10 or 100 units). Similar reactions were performed with 4 mM GSH and 2-[2 Hi]-ONE, 3-[2H]-ONE, or 2,3-[^2H2]-ONE (1 mM). Reaction mixtures were incubated at 37° C. for 1 h and then filtered through an Amicon Ultra-4 5,000 filter, and a 20 μL aliquot was analyzed by LC-MS using gradient system 1.
TOG and ONE were monitored by UV (224 nm) from the reaction between GSH (1 mM) and ONE (1 mM) in the presence of GST (10 or 100 units) for 24 h.

[2] = system: EA.hy 926 endothelial cells; test: Analysis of GSH adducts (TOG) in ONE-treated endothelial cells by stable isotope dilution LC-MRM/MS; assay type: cell-based; conditions: for detection of the adduct in cells treated with ONE: EA.hy 926 cells
Procedure: EA.hy 926 cells were incubated until they reached 70-80% confluence (approximately 2×10^6 cells). DMEM was removed and replaced with FBS-free DMEM prior to treatment with varying concentrations of ONE dissolved in ethanol. The final concentration of ethanol in the culture medium was <0.1%. […] […] […] The cell lysate flow-through and cell media (40 μL of each) were each analyzed in duplicate by LC-MRM/MS using gradient system 4 on the Finnigan Quantum Ultra AM mass spectrometer. The internal standard [^2H3]-ONE-GSH adduct IIb was prepared from 9-[2H3]-ONE and GSH. Quantification of endogenous ONE-GSH adduct IIb was performed from the peak area ratios for the transition m/z 426 [ONE-GSH adduct IIb, protonated molecule (MH+)]→m/z 280 (MH+—CONHCH2CO2H—CONH2) compared to the transition m/z 429 (MH^+, [^2H3]-ONE-GSH adduct IIb internal standard)→m/z 283 (MH+—CONHCH2CO2H—CONH2). Intracellular and extracellular ONE-GSH adduct IIb concentrations were determined by interpolation from a standard curve prepared by adding a fixed amount of [^2H3]-ONE-GSH adduct IIb (10 ng) to increasing amounts of authentic ONE-GSH adduct IIb in the blank lysis buffer or incubation medium (range 0.2 ng/mL to 50 ng/mL). A typical regression line for a standard curve of area ratios compared with ONE-GSH adduct IIb concentrations [ng/mL] in the blank lysis buffer was y) 0.065x +0.0045 (r^2=0.9999).

[3] = system: EA.hy 926 endothelial cells; test: Analysis of GSH adducts in endothelial cells subjected to oxidative stress (t-BuOOH/FeII); assay type: cell-based; conditions: 10 μM t-BuOOH/500 μM FeII
Procedure: EA.hy 926 cells were incubated until they reached 70-80% confluence (approximately 2×10^6 cells). DMEM was removed and replaced with FBS-free DMEM prior to treatment with t-BuOOH (10 μM) and Fe^II (500 μM, ferrous sulfate). Cells were collected after 30 min, and intracellular GSH adduct concentrations were quantified by stable isotope dilution LC-MRM/MS as described above. Channels corresponding to the specific MRM transitions of the ONE-GSH adduct IIb and its trideuterated internal standard were monitored as described above. MRM transitions for HNE- and ONO-GSH adducts m/z 464 (MH^+)→m/z 308 (MH^+—C9H16O2) were also monitored. Quantification of diastereomeric HNE-GSH adducts was conducted by determining the ratio of the area of the HNE-GSH adducts signal to the area of [^2H3]-ONE-GSH adduct IIb. Intracellular concentrations of HNE-GSH adducts were determined with reference to a standard curve constructed in lysis buffer using authentic standards of unlabeled HNE-GSH adducts as described above for the ONE-GSH adduct IIb.

[4] = incubated with 1% TFA, 37° C., 24 h
Procedure: A portion of ONE-GSH adduct IIb was then incubated with 1% TFA at 37° C. for 24 h. The reaction mixture (20 μL) was analyzed by LC-MS using gradient system 1.

## CCCCCC(=O)/C=C/C=O [ONE, 4-oxo-2(E)-nonenal]
[1]
  reaction rate with 100 units of GST relative to 10 units: 6 times
[1]; 10 units of GST, after 24 h
  ONE still left in the reaction mixture: 6%
[1]; 10 units of GST, by 4 h
  ONE consumed: 58%
[1]; 100 units of GST, after 4 h
  consumption of ONE: 93%
[1]; 100 units of GST, after 24 h
  ONE remaining: not detectable
[1]; 100 units of GST, by 40 min
  ONE consumed: 52%
[2]; EA.hy 926 endothelial cells
  ONE concentration at which the cells were no longer viable: > 20 /<M
[2]; LC-MRM/MS
  ONE concentration at which TOG was detected in the extracellular milieu: ≥ 1 µM
  ONE concentration at which intracellular TOG could be quantified: ≥ 5 /iM

## CCCCCc1c2ccn1C(C(=O)O)CCC(=O)NC(C(=O)NCC(=O)O)CSc1ccn(c1CCCCC)C(C(=O)O)CCC(=O)NC(C(=O)NCC(=O)O)CS2 (stereo not drawn) [adduct III, 7,19-bis-(carboxymethyl-carbamoyl)-5,17-dioxo-25,26-dipentyl-9,21-dithia-1,6,13,18-tetraaza-tricyclo[20.2.1.110.13]hexacosa-10(26),11,22(25),23-tetraene-2,14-dicarboxylic acid]
[2]
  detection of the adduct in cells treated with ONE: unable to detect
[3]
  detection of the adduct in cells subjected to oxidative stress: unable to detect

## CCCCCc1c(SCC(NC(=O)CCC(N)C(=O)O)C(=O)NCC(=O)O)ccn1C(CCC(=O)NC(CS)C(=O)NCC(=O)O)C(=O)O (stereo not drawn) [adduct Ia, 2-amino-4-[2-(1-{1-carboxy-3-[1-(carboxymethyl-carbamoyl)-2-mercapto-ethylcarbamoyl]-propyl}-2-pentyl-1H-pyrrol-3-ylsulfanyl)-1-(carboxymethyl-carbamoyl)-ethylcarbamoyl]-butyric acid]
[2]
  detection of the adduct in cells treated with ONE: unable to detect
[3]
  detection of the adduct in cells subjected to oxidative stress: unable to detect

## (2S,7R)-7-[iV-(carboxymethyl)carbamoyl]-5-oxo-12-pentyl-9-thia-1,6-diazabicyclo[8.2.1]trideca-10(13),11-diene-2-carboxylic acid [TOG]
[1]; 10 units of GST
  incubation time to maximal formation of TOG: 24 h
[1]; 100 units of GST
  incubation time to maximal formation of TOG: 4 h
[2]; 20 fiM ONE for 30 min
  TOG as share of the intracellular total GSH at the start of the incubation (10 nmol): 15.4%
  total TOG: 1.54 nmol
[2]; after the addition of 20 μM ONE (printed 20 μL; 20/<M)
  intracellular concentration of TOG: 46.1 µM
[2]; after the addition of ONE
  intracellular TOG, maximum of dose-dependent increase: 46.1 pmol/2×10^6 cells
[2]; cells incubated with 5 fiU ONE for 0.5 h
  concentration of intracellular TOG: 2.8 µM
[4]
  conversion to dehydrated product (adduct IV): quantitative conversion
